According to publication PMC11539244, “Relative inhibitory activities of newly developed diazabicyclooctanes, boronic acid derivatives, and penicillin-based sulfone β-lactamase inhibitors against broad-spectrum AmpC β-lactamases” (Antimicrobial Agents and Chemotherapy, 2024):
Read-outs that look alike come from different tables or passages of the source.

Legend:
[1] = molecular target: T1, CMY-2 (Klebsiella pneumoniae, UniProt Q48434); assay: biochemical; set-up: species or system Citrobacter spp.
T1 construct: made in house; host or cells: E. coli TOP10, plasmid pUCp24

[2] = molecular target: MIR-17; assay: IC50 of β-lactamase inhibitors, crude extract, MIR-17; type: biochemical, Enterobacter roggenkampii; settings: crude extract of E. coli TOP10 recombinant strain, mean of triplicate
[3] = molecular target: ACT-7 (Enterobacter asburiae, UniProt B6V6L3); assay: biochemical
[4] = molecular target: ADC-50 (Acinetobacter baumannii, UniProt Q6DRA1); assay: IC50 of β-lactamase inhibitors, crude extract, ADC-50; type: biochemical, A. baumannii
[5] = molecular target: T2, CMY-42 (Klebsiella pneumoniae, UniProt Q48434, V231S); assay: biochemical; set-up: species or system Citrobacter spp.
T2 construct: made in house; host or cells: E. coli TOP10, plasmid pUCp24

[6] = molecular target: DHA-1 (Morganella morganii, UniProt P94958); assay: IC50 of β-lactamase inhibitors, crude extract, DHA-1; type: biochemical
[7] = molecular target: ACC-1 (Hafnia alvei, UniProt Q9XB24); assay: IC50 of β-lactamase inhibitors, crude extract, ACC-1; type: biochemical
[8] = molecular target: Ear-1 (Klebsiella aerogenes, UniProt A0A0H3FRQ3); assay: IC50 of β-lactamase inhibitors, crude extract, Ear-1; type: biochemical
[9] = molecular target: ACT-17 (Enterobacter asburiae, UniProt P05364); type: biochemical; settings: crude extract of E. coli TOP10 recombinant strain, mean of triplicate
[10] = molecular target: YRC-1 (Yersinia ruckeri, UniProt Q20I87); assay: IC50 of β-lactamase inhibitors, crude extract, YRC-1; type: biochemical
[11] = molecular target: LAT-1 (Citrobacter portucalensis, UniProt Q48443); assay: biochemical
[12] = molecular target: SRT-1 (Serratia marcescens, UniProt P18539); assay: IC50 of β-lactamase inhibitors, crude extract, SRT-1; type: biochemical; settings: crude extract of E. coli TOP10 recombinant strain, mean of triplicate
[13] = molecular target: FOX-5 (Aeromonas allosaccharophila, UniProt Q9F4K3); assay: IC50 of β-lactamase inhibitors, crude extract, FOX-5; type: biochemical
[14] = molecular target: MOX-2 (Aeromonas caviae, UniProt Q9L3G2); assay: IC50 of β-lactamase inhibitors, crude extract, MOX-2; type: biochemical
[15] = molecular target: T3, PDC-1 (Pseudomonas aeruginosa, UniProt P24735); assay: biochemical; set-up: species or system P. aeruginosa
T3 construct: made in house; host or cells: E. coli TOP10, plasmid pUCp24

[16] = molecular target: PDC-382 (Pseudomonas aeruginosa, UniProt P24735, T96I); assay: biochemical; set-up: species or system P. aeruginosa
[17] = molecular target: T4, PDC-5 (Pseudomonas aeruginosa, UniProt P24735, R79Q/T105A); assay: biochemical; set-up: species or system P. aeruginosa
T4 construct: made in house; host or cells: E. coli TOP10, plasmid pUCp24

[18] = system: E. coli TOP10; assay: microbe, parasite or virus in culture; type: cell-based; settings: Escherichia coli, TOP10; E. coli TOP 10; β-lactamase inhibitor alone; read-out: MIC values of inhibitor alone
Method: (§1) In order to assess the relative inhibitory activities of those BLI against AmpC β-lactamases, the corresponding blaampC genes without the original promoter sequences were amplified by PCR with specific primers, and corresponding amplicons were cloned into plasmid pUCp24, as described previously ([12], [13]). […] Cultures of E. coli TOP10 harboring recombinant plasmids and therefore producing the different AmpC tested were grown overnight at 37°C in Luria-Bertani agar medium containing amoxicillin (AMX) (50 µg/mL). The activity of the following acquired class C β-lactamases could therefore be evaluated, namely, ACC-1 (originally from Hafnia spp.), FOX-5 (from Aeromonas allosaccharophila), CMY-2 and CMY-42 (from Citrobacter spp.), DHA-1 (from Morganella morganii), ACT-7 and ACT-17 (from Enterobacter asburiae), MIR-17 (from Enterobacter roggenkampii), MOX-2 (from Aeromonas caviae), and LAT-1 (from Citrobacter portucalensis) ([5]). […] Altogether, these enzymes were chosen as representatives of clinically relevant class C β-lactamases being sources of intrinsic or acquired resistance to broad-spectrum β-lactams among most of the commonly identified Gram-negative bacteria in clinical practice.
(§2) MICs were determined in triplicate by broth microdilution (BMD) for CAZ and AMX, as well as their combinations with each β-lactamase inhibitor. CAZ, AMX, and CLA were purchased from Sigma-Aldrich (St. Louis, MO, USA). All others inhibitors (TAZ HY-W009168, AVI HY-14879, REL HY-16752, VAB HY-19930, NAC HY-109008, ZID HY-120859, TAN HY-109124, XER HY-136072, DUR HY-117974, EMT HY-103095) were purchased from MedChem Express (Luzern, Switzerland). The concentration of each β-lactamase inhibitor was chosen as the concentration used in the respective BL/BLI combination under development or commercially available, according to EUCAST or CLSI ([18], [19]). […] BMD assays were performed in cation-adjusted Mueller-Hinton (MH) broth (Bio-Rad, Marnes-la-Coquette, France) for all antibiotics or antibiotic combinations listed above, according to the EUCAST guidelines ([20]).

[19] = system: E. coli ADC-50 (E. coli TOP10 recombinant strain); assay: microbe, parasite or virus in culture; type: cell-based, Escherichia coli; settings: ADC-50 (cAmpC of A. baumannii); susceptibility testing of recombinant E. coli
Method: as §1, §2

[20] = ADC-50, crude extract of E. coli TOP10 recombinant strain, mean of triplicate
[21] = ACT-7, crude extract of E. coli TOP10 recombinant strain, mean of triplicate, read-out: IC50
[22] = ADC-50, crude extract of E. coli TOP10 recombinant strain, mean of triplicate, read-out: IC50
[23] = CMY-42, crude extract of E. coli TOP10 recombinant strain, mean of triplicate, read-out: IC50
[24] = PDC-1, crude extract of E. coli TOP10 recombinant strain, mean of triplicate, read-out: IC50
[25] = DHA-1, crude extract of E. coli TOP10 recombinant strain, mean of triplicate, read-out: IC50
[26] = ACC-1, crude extract of E. coli TOP10 recombinant strain, mean of triplicate, read-out: IC50
[27] = Ear-1, crude extract of E. coli TOP10 recombinant strain, mean of triplicate, read-out: IC50
[28] = YRC-1, crude extract of E. coli TOP10 recombinant strain, mean of triplicate, read-out: IC50
[29] = LAT-1, crude extract of E. coli TOP10 recombinant strain, mean of triplicate, read-out: IC50
[30] = PDC-382, crude extract of E. coli TOP10 recombinant strain, mean of triplicate, read-out: IC50
[31] = FOX-5, crude extract of E. coli TOP10 recombinant strain, mean of triplicate, read-out: IC50
[32] = PDC-5, crude extract of E. coli TOP10 recombinant strain, mean of triplicate, read-out: IC50
[33] = MOX-2, crude extract of E. coli TOP10 recombinant strain, mean of triplicate, read-out: IC50

Sequence of ACT-17 (P05364 21-381): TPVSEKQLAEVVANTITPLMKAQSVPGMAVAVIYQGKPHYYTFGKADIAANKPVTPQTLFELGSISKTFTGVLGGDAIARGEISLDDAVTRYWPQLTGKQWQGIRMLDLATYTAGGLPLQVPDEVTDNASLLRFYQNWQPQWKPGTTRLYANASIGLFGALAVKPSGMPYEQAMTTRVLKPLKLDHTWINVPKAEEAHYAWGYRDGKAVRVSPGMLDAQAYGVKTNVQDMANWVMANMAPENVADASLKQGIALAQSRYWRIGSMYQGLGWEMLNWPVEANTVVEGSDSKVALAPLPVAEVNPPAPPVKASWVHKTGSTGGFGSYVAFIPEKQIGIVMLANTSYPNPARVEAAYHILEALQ
Sequence of FOX-5 (Q9F4K3 entry or part of it): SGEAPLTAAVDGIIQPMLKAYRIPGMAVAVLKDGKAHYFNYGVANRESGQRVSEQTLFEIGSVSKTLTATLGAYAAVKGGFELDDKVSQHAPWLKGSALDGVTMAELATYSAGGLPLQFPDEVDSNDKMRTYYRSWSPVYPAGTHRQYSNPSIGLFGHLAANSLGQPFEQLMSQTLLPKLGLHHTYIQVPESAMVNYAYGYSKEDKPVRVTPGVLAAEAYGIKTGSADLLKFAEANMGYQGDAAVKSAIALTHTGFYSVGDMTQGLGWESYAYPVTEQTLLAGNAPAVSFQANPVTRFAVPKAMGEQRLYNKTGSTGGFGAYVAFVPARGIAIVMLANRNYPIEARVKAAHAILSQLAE
Sequence of PDC-382 (P24735 27-397 T96I): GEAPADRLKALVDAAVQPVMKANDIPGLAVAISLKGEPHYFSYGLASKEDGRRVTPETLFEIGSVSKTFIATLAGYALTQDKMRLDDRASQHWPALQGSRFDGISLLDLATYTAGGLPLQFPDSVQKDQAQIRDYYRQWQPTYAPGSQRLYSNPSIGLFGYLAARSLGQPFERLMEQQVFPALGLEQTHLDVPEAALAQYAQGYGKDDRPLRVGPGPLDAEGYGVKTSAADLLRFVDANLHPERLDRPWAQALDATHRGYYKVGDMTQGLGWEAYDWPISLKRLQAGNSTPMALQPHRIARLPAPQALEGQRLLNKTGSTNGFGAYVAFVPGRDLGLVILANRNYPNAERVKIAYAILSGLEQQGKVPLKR
Sequence of LAT-1 (Q48443 entry or part of it): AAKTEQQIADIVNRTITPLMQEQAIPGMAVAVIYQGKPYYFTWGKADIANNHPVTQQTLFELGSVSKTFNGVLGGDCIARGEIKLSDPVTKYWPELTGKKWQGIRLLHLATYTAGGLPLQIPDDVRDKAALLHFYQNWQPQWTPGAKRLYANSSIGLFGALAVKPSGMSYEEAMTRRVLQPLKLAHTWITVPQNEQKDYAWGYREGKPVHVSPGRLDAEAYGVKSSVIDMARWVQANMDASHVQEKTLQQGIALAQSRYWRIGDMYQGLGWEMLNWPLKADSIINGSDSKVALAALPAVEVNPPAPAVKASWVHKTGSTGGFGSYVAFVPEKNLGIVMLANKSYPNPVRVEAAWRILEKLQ
T2 sequence (Q48434 21-381 V231S): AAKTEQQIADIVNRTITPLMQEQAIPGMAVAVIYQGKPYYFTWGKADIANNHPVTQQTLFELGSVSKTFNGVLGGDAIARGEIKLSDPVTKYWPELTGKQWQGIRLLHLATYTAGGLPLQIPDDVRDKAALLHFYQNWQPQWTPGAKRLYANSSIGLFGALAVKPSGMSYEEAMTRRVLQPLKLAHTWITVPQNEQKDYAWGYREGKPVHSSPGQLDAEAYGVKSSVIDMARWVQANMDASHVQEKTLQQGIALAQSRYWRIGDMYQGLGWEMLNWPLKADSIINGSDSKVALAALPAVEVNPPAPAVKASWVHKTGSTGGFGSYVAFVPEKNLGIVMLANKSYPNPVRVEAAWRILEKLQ
Sequence of ACT-7 (B6V6L3 entry or part of it): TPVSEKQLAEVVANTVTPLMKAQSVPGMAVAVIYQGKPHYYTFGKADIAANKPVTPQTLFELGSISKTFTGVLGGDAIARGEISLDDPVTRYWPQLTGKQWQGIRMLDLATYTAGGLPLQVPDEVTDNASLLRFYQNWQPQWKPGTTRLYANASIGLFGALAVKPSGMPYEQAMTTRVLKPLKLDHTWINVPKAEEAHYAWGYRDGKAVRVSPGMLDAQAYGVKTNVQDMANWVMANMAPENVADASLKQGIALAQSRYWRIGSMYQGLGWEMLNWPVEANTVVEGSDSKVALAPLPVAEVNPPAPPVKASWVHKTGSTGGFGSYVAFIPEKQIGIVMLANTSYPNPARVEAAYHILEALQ
Sequence of MOX-2 (Q9L3G2 entry or part of it): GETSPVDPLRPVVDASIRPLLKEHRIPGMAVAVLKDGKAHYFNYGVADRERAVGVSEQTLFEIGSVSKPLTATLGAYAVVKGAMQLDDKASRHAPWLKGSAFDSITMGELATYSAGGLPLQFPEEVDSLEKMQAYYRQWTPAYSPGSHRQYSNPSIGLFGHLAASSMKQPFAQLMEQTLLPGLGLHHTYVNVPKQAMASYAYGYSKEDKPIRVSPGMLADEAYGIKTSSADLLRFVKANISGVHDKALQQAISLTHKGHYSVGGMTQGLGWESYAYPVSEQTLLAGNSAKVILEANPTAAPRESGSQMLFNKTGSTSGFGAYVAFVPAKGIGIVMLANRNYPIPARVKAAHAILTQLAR
T4 sequence (P24735 27-397 R79Q/T105A): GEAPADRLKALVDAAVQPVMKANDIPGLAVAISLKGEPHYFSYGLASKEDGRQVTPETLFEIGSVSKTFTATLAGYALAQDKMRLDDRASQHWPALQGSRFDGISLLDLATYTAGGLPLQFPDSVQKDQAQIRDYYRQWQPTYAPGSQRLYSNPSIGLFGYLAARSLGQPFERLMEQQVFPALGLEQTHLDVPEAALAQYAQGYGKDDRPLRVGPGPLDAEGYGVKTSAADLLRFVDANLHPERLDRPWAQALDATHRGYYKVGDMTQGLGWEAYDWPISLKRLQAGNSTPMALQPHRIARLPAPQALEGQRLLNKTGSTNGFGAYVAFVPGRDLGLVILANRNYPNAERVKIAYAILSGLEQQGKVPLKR
Sequence of YRC-1 (Q20I87 entry or part of it): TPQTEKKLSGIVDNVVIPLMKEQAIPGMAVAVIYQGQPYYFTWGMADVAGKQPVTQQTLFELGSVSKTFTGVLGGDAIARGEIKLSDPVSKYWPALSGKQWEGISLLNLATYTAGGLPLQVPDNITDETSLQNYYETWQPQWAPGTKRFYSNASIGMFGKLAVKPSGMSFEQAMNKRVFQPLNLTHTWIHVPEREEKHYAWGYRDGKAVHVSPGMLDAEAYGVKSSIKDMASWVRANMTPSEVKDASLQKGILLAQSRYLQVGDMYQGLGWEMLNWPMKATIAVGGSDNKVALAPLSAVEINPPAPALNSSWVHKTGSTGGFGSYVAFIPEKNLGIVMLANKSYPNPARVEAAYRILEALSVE
Sequence of ACC-1 (Q9XB24 entry or part of it): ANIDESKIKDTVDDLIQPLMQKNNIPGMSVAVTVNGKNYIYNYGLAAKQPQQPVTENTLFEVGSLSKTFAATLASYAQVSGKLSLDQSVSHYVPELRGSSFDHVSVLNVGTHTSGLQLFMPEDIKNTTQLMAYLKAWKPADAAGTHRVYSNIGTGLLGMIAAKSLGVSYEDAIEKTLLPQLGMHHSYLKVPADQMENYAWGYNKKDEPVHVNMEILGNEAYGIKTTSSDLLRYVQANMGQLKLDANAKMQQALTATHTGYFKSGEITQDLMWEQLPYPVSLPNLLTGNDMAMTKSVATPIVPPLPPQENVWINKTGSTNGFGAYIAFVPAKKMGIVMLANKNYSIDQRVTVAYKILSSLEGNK
Sequence of SRT-1 (P18539 22-376): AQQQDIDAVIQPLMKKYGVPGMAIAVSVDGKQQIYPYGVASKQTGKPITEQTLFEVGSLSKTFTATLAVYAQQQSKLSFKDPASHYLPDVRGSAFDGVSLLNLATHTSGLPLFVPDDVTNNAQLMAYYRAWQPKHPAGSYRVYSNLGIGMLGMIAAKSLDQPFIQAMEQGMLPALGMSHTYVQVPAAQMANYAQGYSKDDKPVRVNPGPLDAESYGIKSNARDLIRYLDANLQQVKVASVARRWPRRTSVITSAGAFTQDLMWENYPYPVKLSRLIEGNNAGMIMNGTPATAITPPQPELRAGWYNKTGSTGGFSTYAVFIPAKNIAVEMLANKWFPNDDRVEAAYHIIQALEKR
Sequence of Ear-1 (A0A0H3FRQ3 entry or part of it): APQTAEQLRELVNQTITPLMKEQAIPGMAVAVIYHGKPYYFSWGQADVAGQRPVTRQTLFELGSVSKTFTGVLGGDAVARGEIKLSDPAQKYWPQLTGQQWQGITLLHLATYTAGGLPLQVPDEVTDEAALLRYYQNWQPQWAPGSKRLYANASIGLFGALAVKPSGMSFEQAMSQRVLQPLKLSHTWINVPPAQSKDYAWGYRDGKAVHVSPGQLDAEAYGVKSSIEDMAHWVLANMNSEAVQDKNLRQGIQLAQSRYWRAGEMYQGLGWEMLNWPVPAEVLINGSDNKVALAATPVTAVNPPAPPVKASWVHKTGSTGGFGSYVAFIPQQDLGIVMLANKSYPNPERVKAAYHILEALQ
T3 sequence (P24735 27-397): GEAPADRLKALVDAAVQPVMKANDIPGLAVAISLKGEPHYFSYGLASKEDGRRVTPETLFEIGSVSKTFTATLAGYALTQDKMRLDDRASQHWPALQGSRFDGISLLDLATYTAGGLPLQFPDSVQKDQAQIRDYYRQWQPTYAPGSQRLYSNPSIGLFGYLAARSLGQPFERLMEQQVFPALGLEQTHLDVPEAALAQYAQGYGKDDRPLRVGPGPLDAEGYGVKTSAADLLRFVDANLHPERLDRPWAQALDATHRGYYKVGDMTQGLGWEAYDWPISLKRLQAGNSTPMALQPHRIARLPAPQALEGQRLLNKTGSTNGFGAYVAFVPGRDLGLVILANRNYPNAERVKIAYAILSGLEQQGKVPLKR

Structure (SMILES) | IC50 [1] [µM] | IC50 [2] [µM] | IC50 [3] [µM] | IC50 [4, 20] [µM] | IC50 [5] [µM] | IC50 [6] [µM] | IC50 [7] [µM] | IC50 [8] [µM] | IC50 [9] [µM] | IC50 [10] [µM] | IC50 [11] [µM] | IC50 [12] [µM] | IC50 [13] [µM] | IC50 [14] [µM] | IC50 [15] [µM] | IC50 [16] [µM] | IC50 [17] [µM] | MIC [18] [µg/mL] | inhibition of ADC-50 (in words) ([4]; ADC-50 of A. baumannii) | also measured
NC(=O)[C@@H]1CC[C@@H]2CN1C(=O)N2OS(=O)(=O)O [Avibactam, avibactam] | 0.61 | 1 | 0.8 | 61 | 0.65 | 0.11 | 0.25 | 0.88 | 0.9 | 2.1 | 0.4 | 6.7 | 1 | 5.6 |  |  |  |  |  | IC50 ([4]; ADC-50, crude extract of E. coli TOP10 recombinant strain, mean of triplicate, listed as AVI): > 13 µM
O=C(O)[C@H]1/C(=C/CO)O[C@@H]2CC(=O)N21 [Clavulanic acid, clavulanic acid] | > 100 | > 100 | > 100 | > 100 | > 100 | > 100 | > 100 | > 100 |  | > 100 | > 100 | > 100 | > 100 | > 100 | > 100 | > 100 | > 100 |  |  | 
CC1=C[C@@H]2CN(C(=O)N2OS(=O)(=O)O)[C@@H]1C(N)=O [Durlobactam, durlobactam] | 0.004 | 0.005 | 0.004 | 0.17 | 0.011 | 0.004 | 0.005 | 0.006 | 0.003 | 0.005 | 0.005 | 0.022 | 0.022 | 0.055 | 0.009 | 0.1 | 0.013 | 0.125 |  | IC50 ([4]; read-out: IC50 value, ADC-50 of A. baumannii): 0.00017 µM
Cn1cc[n+](C[C@@]2(C)[C@H](C(=O)[O-])N3C(=O)C[C@H]3S2(=O)=O)n1 [Enmetazobactam, enmetazobactam] |  | > 100 |  |  |  |  |  |  |  |  |  |  |  |  |  |  |  |  | not significantly inhibited | IC50 ([1]; CMY-2, crude extract of E. coli TOP10 recombinant strain, mean of triplicate, read-out: IC50): 40 µM; IC50 [3, 21]: 43 µM; IC50 [4, 22]: > 100 µM; IC50 [5, 23]: 64 µM; IC50 [15, 24]: > 100 µM; IC50 [6, 25]: 26 µM; IC50 [7, 26]: 39 µM; IC50 [8, 27]: 91 µM; IC50 ([9]; read-out: IC50): 62 µM; IC50 [10, 28]: > 100 µM; IC50 [11, 29]: 97 µM; IC50 ([12]; read-out: IC50): > 100 µM; IC50 [16, 30]: > 100 µM; IC50 [13, 31]: > 100 µM; IC50 [17, 32]: > 100 µM; IC50 [14, 33]: > 100 µM
NCCONC(=O)[C@@H]1CC[C@@H]2CN1C(=O)N2OS(=O)(=O)O [Nacubactam, nacubactam] | 0.42 | 0.6 | 0.37 | > 100 | 1.7 | 0.5 | 0.45 | 0.28 | 0.29 | 0.13 | 0.29 | 70 | 5.3 | 4.1 | 5.1 | 34 | 1.2 | 4 | not significantly inhibited | 
O=C(NC1CCNCC1)[C@@H]1CC[C@@H]2CN1C(=O)N2OS(=O)(=O)O [Relebactam, relebactam] | 0.59 | 1.3 | 0.71 | 13 | 1.1 | 0.85 | 0.58 | 0.89 | 0.33 | 1.9 | 0.23 | 37 | 2 | 2.4 |  |  |  |  |  | IC50 ([4]; ADC-50, crude extract of E. coli TOP10 recombinant strain, mean of triplicate, listed as REL): > 13 µM
NCCN[C@H]1CC[C@H](CC(=O)N[C@H]2Cc3cccc(C(=O)O)c3OB2O)CC1 [Taniborbactam, taniborbactam] |  | 0.03 |  |  |  |  |  |  |  |  |  |  |  |  |  |  |  |  | not significantly inhibited | IC50 [3, 21]: 0.19 µM; sensitivity of ADC-50 β-lactamase to inhibitor (in words) [19]: resistant; IC50 [4, 22]: 26 µM; IC50 [5, 23]: 0.68 µM; IC50 [15, 24]: 1.1 µM; IC50 [6, 25]: 0.12 µM; IC50 [7, 26]: 0.18 µM; IC50 [8, 27]: 0.11 µM; IC50 ([9]; read-out: IC50): 0.21 µM; IC50 [10, 28]: 0.1 µM; IC50 [11, 29]: 0.23 µM; IC50 ([12]; read-out: IC50): 0.06 µM; IC50 [16, 30]: 5 µM; IC50 [13, 31]: 0.16 µM; IC50 [17, 32]: 0.51 µM; IC50 [14, 33]: 0.32 µM
C[C@]1(Cn2ccnn2)[C@H](C(=O)O)N2C(=O)C[C@H]2S1(=O)=O [Tazobactam, tazobactam] | 20 | 83 | 23 | > 100 | 24 | 1.3 | 2.1 | 72 |  | > 100 | 7.3 | 48 | 23 | > 100 |  |  |  |  |  | 
O=C(O)C[C@@H]1CC[C@H](NC(=O)Cc2cccs2)B(O)O1 [Vaborbactam, vaborbactam] | 5.3 | 1.1 | 3.6 | > 100 | 13 | 3.1 | 3.6 | 0.84 | 2.6 | 2 | 1.2 | 6.9 | 17 | 1.9 | 11 | 54 | 37 |  | not significantly inhibited | 
O=C(NNC(=O)[C@@H]1CC[C@@H]2CN1C(=O)N2OS(=O)(=O)O)[C@@H]1CCCNC1 [Zidebactam, zidebactam] | 0.12 | 0.11 | 0.12 | 5.5 | 0.17 | 0.06 | 0.09 | 0.12 | 0.14 | 0.09 | 0.005 | 37 | 0.99 | 2.7 |  |  |  | 0.125 |  | IC50 ([4]; ADC-50, crude extract of E. coli TOP10 recombinant strain, mean of triplicate, listed as ZID): 5 µM
